Assay results published in patent publication US6538107B1, “G protein coupled receptor protein production, and use thereof” (Takeda Chemical Industries, Ltd., priority 1994, dated 2003).

System: oocytes injected with H2O
Assay: Electrophysiological measurement in control Xenopus oocytes injected with H2O instead of pMAH2-17 cRNA
Type: cell-based
Conditions: ATP stimulation, initial membrane potential −60 mV

Nc1ncnc2c1ncn2[C@@H]1O[C@H](COP(=O)(O)OP(=O)(O)OP(=O)(O)O)[C@@H](O)[C@H]1O [ATP, Adenosine triphosphate]
inward currents (current changes of the membrane) evoked by ATP: such a current was not observed
